The subject of assay [1] is Mast/stem cell growth factor receptor Kit (Homo sapiens), P10721 [D816V]. Nature of the assay: (§1) Selectivity interaction (Ambit KINOMEscan and KiNATiv profiling in Jurkat cells) EUB0000090b KIT. The format is cell-based. Conditions: at 1 µM.
Assay [2] concerns Mast/stem cell growth factor receptor Kit (Homo sapiens), P10721 [D816H]. The description is as §1. It is filed as cell-based. The note with it: at 1 µM.
In assay [3] the test system is Mast/stem cell growth factor receptor Kit (Homo sapiens), P10721 [V559D]. The assay is described as §1. Conditions: at 1 µM. It is filed as cell-based.
Mast/stem cell growth factor receptor Kit (Homo sapiens), P10721 [V559D], sequence (P10721 whole entry V559D): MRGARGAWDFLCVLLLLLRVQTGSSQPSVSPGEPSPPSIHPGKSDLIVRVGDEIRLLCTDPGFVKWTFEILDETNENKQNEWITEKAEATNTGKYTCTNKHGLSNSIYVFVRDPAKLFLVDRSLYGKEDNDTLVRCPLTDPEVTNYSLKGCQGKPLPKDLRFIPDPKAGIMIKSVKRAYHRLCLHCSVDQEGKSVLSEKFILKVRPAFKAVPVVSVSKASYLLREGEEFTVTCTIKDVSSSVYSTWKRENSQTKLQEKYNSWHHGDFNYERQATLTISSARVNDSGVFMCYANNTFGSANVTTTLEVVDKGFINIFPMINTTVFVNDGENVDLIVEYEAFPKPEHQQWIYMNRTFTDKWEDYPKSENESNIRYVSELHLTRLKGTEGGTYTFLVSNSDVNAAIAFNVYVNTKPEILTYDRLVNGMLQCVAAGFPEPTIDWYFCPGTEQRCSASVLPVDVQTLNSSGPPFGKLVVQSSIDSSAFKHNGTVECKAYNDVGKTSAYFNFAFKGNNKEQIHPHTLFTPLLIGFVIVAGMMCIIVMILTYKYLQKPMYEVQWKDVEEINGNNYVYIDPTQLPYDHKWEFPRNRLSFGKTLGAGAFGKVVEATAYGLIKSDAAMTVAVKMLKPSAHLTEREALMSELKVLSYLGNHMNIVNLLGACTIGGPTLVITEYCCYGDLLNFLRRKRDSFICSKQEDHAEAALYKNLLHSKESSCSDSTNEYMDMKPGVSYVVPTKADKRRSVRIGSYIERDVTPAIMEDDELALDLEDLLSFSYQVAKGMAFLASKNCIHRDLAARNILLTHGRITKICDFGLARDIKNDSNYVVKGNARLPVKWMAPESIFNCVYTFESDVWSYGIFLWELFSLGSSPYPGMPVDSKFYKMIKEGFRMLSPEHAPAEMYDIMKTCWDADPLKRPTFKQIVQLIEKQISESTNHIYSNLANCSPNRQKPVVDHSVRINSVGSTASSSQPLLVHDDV
The subject of assay [4] is Mast/stem cell growth factor receptor Kit (Homo sapiens), P10721 [L576P]. The description is as §1. It is filed as cell-based. Conditions: at 1 µM.
In assay [5] the test system is Mast/stem cell growth factor receptor Kit (Homo sapiens), P10721 [V559D,T670I]. The description is as §1. The format is cell-based. Conditions: at 1 µM.
Assay [6] concerns Mast/stem cell growth factor receptor Kit (Homo sapiens), P10721 [V559D,V654A]. The assay is described as §1. The note with it: at 1 µM. It is filed as cell-based.
The test system of assay [7] is Mast/stem cell growth factor receptor Kit (Homo sapiens), P10721 [A829P]. Described as §1. The format is cell-based. Conditions: at 1 µM.
Mast/stem cell growth factor receptor Kit (Homo sapiens), P10721 [A829P], sequence (P10721 whole entry A829P): as the sequence (P10721 whole entry V559D) above, with D559V, A829P counted along it
Assay [8] deals with Mast/stem cell growth factor receptor Kit (Homo sapiens, UniProt P10721). The assay is described as §1. The format is cell-based. Conditions: at 1 µM.
Mast/stem cell growth factor receptor Kit, sequence (P10721 whole entry): as the sequence (P10721 whole entry V559D) above, with D559V counted along it
The target in assay [9] is Tyrosine-protein kinase FRK (Homo sapiens) (UniProt P42685). Nature of the assay: Selectivity interaction (SelectScreen profiling (Invitrogen)) EUB0000607a FRK. The note with it: at 2 µM.
For assay [10], the target named is T1, Aurora kinase C (Homo sapiens) (UniProt Q9UQB9).
T1 sequence (whole entry): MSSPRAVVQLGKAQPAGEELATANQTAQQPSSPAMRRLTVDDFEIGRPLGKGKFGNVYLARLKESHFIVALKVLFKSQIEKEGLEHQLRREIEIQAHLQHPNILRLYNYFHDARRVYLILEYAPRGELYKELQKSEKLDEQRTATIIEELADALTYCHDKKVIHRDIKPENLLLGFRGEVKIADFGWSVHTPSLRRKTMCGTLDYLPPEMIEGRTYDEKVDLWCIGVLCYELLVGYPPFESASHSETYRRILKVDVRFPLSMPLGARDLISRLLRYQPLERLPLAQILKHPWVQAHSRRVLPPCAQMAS
Nature of the assay: Selectivity interaction (KinomeScan (DiscoverX)) EUB0000666a AURKC. The note with it: at 10 µM.

Assay [11] has as its target cAMP-dependent protein kinase catalytic subunit beta (Homo sapiens) (UniProt P22694). Nature of the assay: Selectivity interaction (KinomeScan (DiscoverX)) EUB0000229b PRKACB. Conditions: at 10 µM.
The target of assay [12] is T2, Cyclin-G-associated kinase (Homo sapiens) (UniProt O14976).
T2 sequence (whole entry): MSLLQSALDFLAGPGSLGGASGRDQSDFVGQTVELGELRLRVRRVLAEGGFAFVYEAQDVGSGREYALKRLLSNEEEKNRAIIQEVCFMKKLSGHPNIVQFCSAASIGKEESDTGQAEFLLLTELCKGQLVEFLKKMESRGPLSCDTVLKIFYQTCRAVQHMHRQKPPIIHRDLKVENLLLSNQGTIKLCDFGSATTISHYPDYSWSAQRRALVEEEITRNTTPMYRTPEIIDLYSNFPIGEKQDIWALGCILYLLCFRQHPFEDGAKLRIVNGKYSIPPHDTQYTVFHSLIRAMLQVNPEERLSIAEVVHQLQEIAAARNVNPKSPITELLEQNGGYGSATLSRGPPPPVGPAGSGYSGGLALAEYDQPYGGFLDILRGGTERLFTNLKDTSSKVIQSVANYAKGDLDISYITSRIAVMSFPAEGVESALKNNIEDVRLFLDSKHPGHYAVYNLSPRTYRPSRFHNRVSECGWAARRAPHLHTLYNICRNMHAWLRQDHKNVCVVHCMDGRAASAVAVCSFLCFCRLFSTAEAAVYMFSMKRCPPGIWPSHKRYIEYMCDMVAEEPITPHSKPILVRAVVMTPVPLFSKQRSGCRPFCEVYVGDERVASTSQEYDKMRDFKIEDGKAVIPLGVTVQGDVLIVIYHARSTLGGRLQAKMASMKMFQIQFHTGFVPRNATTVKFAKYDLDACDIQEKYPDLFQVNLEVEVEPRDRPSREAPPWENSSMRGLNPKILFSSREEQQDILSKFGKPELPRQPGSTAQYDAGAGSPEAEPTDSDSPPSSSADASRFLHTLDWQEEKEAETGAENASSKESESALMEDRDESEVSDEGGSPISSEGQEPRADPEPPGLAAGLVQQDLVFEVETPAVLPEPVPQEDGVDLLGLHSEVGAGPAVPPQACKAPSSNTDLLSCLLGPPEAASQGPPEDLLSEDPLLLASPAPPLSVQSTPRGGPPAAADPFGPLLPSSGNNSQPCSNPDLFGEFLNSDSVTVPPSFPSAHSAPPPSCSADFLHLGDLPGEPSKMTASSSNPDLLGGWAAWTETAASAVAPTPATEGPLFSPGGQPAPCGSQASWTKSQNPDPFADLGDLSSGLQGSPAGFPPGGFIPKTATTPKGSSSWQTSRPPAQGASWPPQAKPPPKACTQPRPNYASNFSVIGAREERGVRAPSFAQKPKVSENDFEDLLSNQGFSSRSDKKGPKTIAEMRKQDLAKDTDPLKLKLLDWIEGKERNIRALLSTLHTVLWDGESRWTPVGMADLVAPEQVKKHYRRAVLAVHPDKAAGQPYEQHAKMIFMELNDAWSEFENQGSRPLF
Nature of the assay: Selectivity interaction (KinomeScan (DiscoverX)) EUB0000229b GAK. The note with it: at 10 µM.

The target of assay [13] is Serine/threonine-protein kinase 35 (Homo sapiens) (UniProt Q8TDR2). Nature of the assay: Selectivity interaction (KinomeScan (DiscoverX)) EUB0000655a STK35. Conditions: at 10 µM.
Serine/threonine-protein kinase 35 (Homo sapiens), sequence (Q8TDR2 whole entry): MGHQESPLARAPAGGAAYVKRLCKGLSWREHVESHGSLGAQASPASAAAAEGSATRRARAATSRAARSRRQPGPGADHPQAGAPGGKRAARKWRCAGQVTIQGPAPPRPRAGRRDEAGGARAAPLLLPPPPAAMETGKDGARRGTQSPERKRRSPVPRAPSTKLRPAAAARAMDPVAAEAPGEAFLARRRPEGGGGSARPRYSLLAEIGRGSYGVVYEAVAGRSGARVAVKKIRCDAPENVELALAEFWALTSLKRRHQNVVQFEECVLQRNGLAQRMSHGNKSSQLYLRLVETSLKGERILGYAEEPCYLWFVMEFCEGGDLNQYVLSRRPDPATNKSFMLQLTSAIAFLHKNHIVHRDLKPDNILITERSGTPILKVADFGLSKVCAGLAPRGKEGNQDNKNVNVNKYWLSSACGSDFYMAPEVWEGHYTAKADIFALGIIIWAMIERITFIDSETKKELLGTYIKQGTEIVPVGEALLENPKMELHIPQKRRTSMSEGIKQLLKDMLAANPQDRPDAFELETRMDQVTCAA
Assay [14] addresses Calcium/calmodulin-dependent protein kinase type 1G (Homo sapiens) (UniProt Q96NX5). Nature of the assay: Selectivity interaction (KinomeScan (DiscoverX)) EUB0000655a CAMK1G. Conditions: at 10 µM.
Assay [15] concerns the target 4-aminobutyrate aminotransferase, mitochondrial (Homo sapiens, UniProt P80404). Nature of the assay: Selectivity interaction (GPCR panel (PDSP screen)) EUB0000311b ABAT. The note with it: at 10 µM.
The target of assay [16] is 5-hydroxytryptamine receptor 1B (Homo sapiens) (UniProt P28222). Nature of the assay: Selectivity interaction (GPCR panel (PDSP screen)) EUB0001079a HTR1B. Conditions: at 10 µM.
Assay [17] deals with D(2) dopamine receptor (Homo sapiens, UniProt P14416). Nature of the assay: Selectivity interaction (Panel of kinases, GPCRs, ion channels and transporters (enzymatic assay)) EUB0000266bCl DRD2.
Assay [18] addresses Serine/threonine-protein kinase B-raf (Homo sapiens, UniProt P15056, V600E). Nature of the assay: Selectivity interaction (Radiometric kinase assay (using 10 uM ATP)) EUB0000601a BRAF.
Assay [19] deals with Phosphatidylinositol 4-kinase beta (Homo sapiens, UniProt Q9UBF8). Nature of the assay: Selectivity interaction (ActivX KiNativ screen (ex vivo kinase selectivity in human PBMCs)) EUB0001619a PI4KB. It is filed as cell-based. The note with it: PBMC, at 1 µM.
Assay [20] has as its target Vasopressin V2 receptor (Homo sapiens, UniProt P30518). Nature of the assay: Selectivity interaction (Vasopressin V2 receptor binding assay, human recombinant ) EUB0000877a AVPR2.
Assay [21] deals with Protein-tyrosine kinase 6 (Homo sapiens, UniProt Q13882). Nature of the assay: Selectivity interaction (KinomeScan (DiscoverX)) EUB0000595a PTK6. The note with it: at 10 µM.
Protein-tyrosine kinase 6, sequence (Q13882 whole entry, looked up): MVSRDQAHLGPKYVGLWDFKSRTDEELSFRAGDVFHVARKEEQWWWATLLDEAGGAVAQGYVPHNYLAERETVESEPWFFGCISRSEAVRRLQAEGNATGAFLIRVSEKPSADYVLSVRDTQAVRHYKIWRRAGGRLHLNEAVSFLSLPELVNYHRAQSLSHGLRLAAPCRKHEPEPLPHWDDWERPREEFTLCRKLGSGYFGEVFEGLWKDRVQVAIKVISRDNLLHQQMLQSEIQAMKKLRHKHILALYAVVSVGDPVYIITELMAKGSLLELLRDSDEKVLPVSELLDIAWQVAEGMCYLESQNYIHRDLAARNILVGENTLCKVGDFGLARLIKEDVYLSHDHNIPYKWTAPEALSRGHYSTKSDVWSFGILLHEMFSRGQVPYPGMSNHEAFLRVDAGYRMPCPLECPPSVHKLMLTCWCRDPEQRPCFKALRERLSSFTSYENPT

Mast/stem cell growth factor receptor Kit (Homo sapiens), P10721 [D816H], sequence (P10721 whole entry D816H): as the sequence (P10721 whole entry V559D) above, with D559V, D816H counted along it

Turning to `CN(C)C/C=C/C(=O)Nc1ccc(C(=O)N2CCCC(Nc3ncc(Cl)c(-c4c[nH]c5ccccc45)n3)C2)cc1` (stereo unspecified), the % of control in assay [1] amounted to 92%; in assay [2] it was 76%; in [3] it was 82%; in assay [4], 82%; in [5], 95%; in assay [6], 74%. For the same molecule, the % of control in assay [7] was found to be 75%; in [8] it was 93%. Regarding `CNC(=O)Nc1ccc(-c2nc(N3CC4CCC(C3)O4)c3cnn(C4CCC5(CC4)OCCO5)c3n2)cc1`, the % of inhibition in [9] was 3%. As for `O=C(NOC[C@H](O)CO)c1ccc(F)c(F)c1Nc1ccc(I)cc1F`, the % of control in assay [10] is 45%. Consider `COc1cc(N(C)c2ccnc3ccc(C(F)(F)F)cc23)cc(OC)c1OC`, for which the % binding in assay [11] amounted to 75%; in assay [12] it was 43%. For `CN(C)CCOc1ccc(-c2nc(-c3ccncc3)c(-c3ccc4c(c3)CC/C4=N\O)[nH]2)cc1`, the % of control in assay [13] and in assay [14] was 100% each time.

Turning to `CCc1ccccc1C(=O)Nc1n[nH]c2c(C)c(F)c(C3C(C#N)=C(C)N(C)C(C)=C3C#N)cc12` [BAY-3827], the % of inhibition in assay [15] was determined as 85.6%. Regarding `Nc1cnc(N2CCc3cc(S(=O)(=O)Nc4c(F)cc(Cl)cc4F)cc(N4CCCC4=O)c32)nc1` [TP-020n], the % of inhibition in assay [16] was -3.82%. With `CCn1c(-c2nc3cc(C(=O)N4CCCC(N)C4)ccc3n2C)cc2ccccc21` (stereo unspecified), the pXC50 in [17] is less than 4 M. `CCc1cc(Nc2nccc(-c3c(-c4ccc(OC)c(C(=O)Nc5c(F)cccc5F)c4)nc4ccccn34)n2)c(OC)cc1N1CCC(N2CCN(S(C)(=O)=O)CC2)CC1`: in assay [18], the IC50 was greater than 2 µM.

For the molecule `N#Cc1cccc(-c2c[nH]c3ncnc(N4CCOCC4)c23)c1`, the % of inhibition in assay [19] amounted to 5%. As for `CCC(=O)N1CC[C@H](Nc2ncnc3c2CN(c2cnc(OC)c(C(F)(F)F)c2)CC3)C1` [LENIOLISIB], in [20], the IC50 is greater than 30 µM. Molecule `COCC(=O)NC/C=C/c1ccc2ncnc(Nc3ccc(Oc4ccc(C)nc4)c(C)c3)c2c1` [CP-724714] came in with a % of control in assay [21] of 100%.

Values taken from ChEMBL document CHEMBL5465560, “Selectivity Literature for EUbOPEN Chemogenomic Library” (2024).
